According to US10093642B2, “Multitarget hedgehog pathway inhibitors and uses thereof” (UNIVERSITA' DEGLI STUDI DI SIENA, priority 2013, dated 2018):

Columns and labels:
MEF-Ptch−/− cells = experiment: Gli1 mRNA (quantitative RT-PCR) and protein (western blot) in MEF-Ptch−/− cells; format: cell-based, mouse; settings: different concentrations, 48 h
Description: FIG. 8. […] (A) Gli1 mRNA levels were determined by quantitative RT-PCR, normalizing to HPRT (Hypoxanthine-guanine phosphoribosyl transferase) expression. Error bars indicate SD.
To analyze the antagonist properties of Glabrescione B under more physiological conditions, the inventors used MEF-Ptch^−/− cells, embryo fibroblasts derived from Ptch^−/− mouse, in which the activation of Hh signaling is consequence of Ptch1 deletion. Since Patched acts as upstream repressor of SMO, inhibition of the Hedgehog pathway from Patched is prevented and the Hedgehog pathway is constitutively activated in this cell lines, which turned out to be a reliable cellular model for studying the effect of Hedgehog inhibitors. […]
In order to determine whether Glabrescione B regulates cells with a constitutive Hh pathway activation, the MEF-Ptch^−/− cell line (a kind gift by M. Scott, Stanford University, CA, in which the activation of Hh signaling is consequence of Ptch1 deletion, Goodrich, L. V. et al, 1997) was treated with Glabrescione B at different concentrations and the effect on expression of Hh/Gli1 pathway was determined by quantitative RT-PCR and western blot analysis. […] Quantitative PCR (QPCR) analysis of Gli1 mRNA expression was performed on each cDNA sample using the ABI Prism 7900 Sequence Detection System employing Assay-on-Demand Reagents (Life Technologies). […]

Jurkat T leukemia cells = experiment: Effect on Hh-independent Jurkat cells; format: cell-based
Ptch1+/− MB allografts = experiment: Ptch1+/− MB allograft in nude mice; format: in vivo, BALB/c nude mice; settings: 18 days
Description: FIG. 17. Glabrescione B inhibits Gli1-dependent MB tumor growth in vivo (Ptch1^+/− MB allografts). (A) Change of tumor volume during Glabrescione B (GlaB) or vehicle (CTR) treatment period (days 18). […] (C) qRT-PCR of Gli1 and Ptch1 mRNA expression levels normalized with endogenous control β2-microglobulin and HPRT.
(§1) Therefore, to verify the Glabrescione B efficacy to inhibit Hh-dependent tumor cell growth in vivo, we turned to an allograft model of MB cells. Spontaneous Medulloblastomas from Ptch1^+/− mice were isolated, minced, pipetted to obtain a single-cell suspension and grafted s.c. at the posterior flank of female BALB/c nude mice (nu/nu) (Charles River Laboratories, Lecco, Italy). Tumors were grown until a median size of ˜100 mm^3. Animals were randomly divided into two groups (n=6) and treated with solvent only (2-hydroxypropyl-β-cyclodextrin:ethanol, 3:1) or Glabrescione B in solvent (75 μmol/Kg) for 18 days (2-hydroxypropyl-β-cyclodextrin was purchased from Sigma Aldrich, St. Louis, Mo., USA). 2×10^6 ASZ001 BCC cells were resuspended in an equal volume of 154CF medium and Matrigel (BD Biosciences, Heidelberg, Germany) and injected s.c. at the posterior flank of female NOD/SCID mice (Charles River Laboratories, Lecco, Italy), as previously described (Eberl et al, 2012). Tumors were grown until a median size of ˜200 mm^3. Animals were randomly divided into two groups (n=6) and treated with solvent only (2-hydroxypropyl-β-cyclodextrin:ethanol, 3:1) or Glabrescione B in solvent (100 μmol/Kg) for 18 days. Tumor volumes change was calculated by the formula length×width×0.5×(length+width) (Lauth et al, 2007).
Nude mice were grafted with spontaneous primary MB from Ptch1^+/− mice and treated every second day with s.c. injections of Glabrescione B at a concentration of 75 μmol/Kg or solvent only (n=6 for each group).

ASZ001 BCC allografts = experiment: ASZ001 BCC allograft in NOD/SCID mice; format: in vivo; settings: 100 μmol/Kg, 18 days
Description: FIG. 18. Glabrescione B inhibits Gli1-dependent BCC tumor growth in vivo. (ASZ001 BCC allografts). (A) Change of tumor volume during Glabrescione B (GlaB) or vehicle (CTR) treatment period (18 days). […] (C) qRT-PCR of Gli1 and Ptch1 mRNA. Shown is the mean±SD of tumor (n=6) for each treatment. *P<0.05 vs CTR.
as §1, with “Tumors were grown until a median size of ˜200 mm^3. Animals were randomly divided into two groups (n=6) and treated with solvent only (2-hydroxypropyl-β-cyclodextrin:ethanol, 3:1) or Glabrescione B in solvent (100 μmol/Kg) for 18 days.” left out, “2007). […]” for “2007).”

SMILES: COc1cc(OC)c2c(=O)c(-c3ccc(OCC=C(C)C)c(OCC=C(C)C)c3)coc2c1 [Glabrescione B, 3-(3′,4′-bis(3-methylbut-2-enyloxy)phenyl)-5,7-dimethoxy-4H-chromen-4-one]
- Gli1 mRNA and protein levels (MEF-Ptch−/− cells): strongly reduced mRNA and protein levels of Gli1
- effect on Jurkat cells (Jurkat T leukemia cells): no effect
- tumor mass (Ptch1+/− MB allografts; 75 μmol/Kg s.c. every second day): significantly suppressed tumor mass
- Gli1 mRNA levels in tumors (Ptch1+/− MB allografts; 75 μmol/Kg s.c.): reduction of Gli1 mRNA levels
- Ki67 staining in tumors (Ptch1+/− MB allografts; 75 μmol/Kg s.c.): decreased Ki67 staining
- Gli1 mRNA levels in tumors (ASZ001 BCC allografts): significant reduction
- tumor growth (ASZ001 BCC allografts): significant reduction of tumor growth
